Results from ChEMBL document CHEMBL1153245, “A profile of the in vitro anti-tumor activity of imidazolium-based ionic liquids” (2010).

Assays:
Format in all cases: functional
[1] = system: SK-OV-3; assay: Anticancer activity against human SKOV3 cells assessed cell growth at 10 uM after 48 hrs by sulforhodamine B assay relative to control
[2] = Anticancer activity against human RPMI8266 cells assessed cell growth at 10 uM after 48 hrs by sulforhodamine B assay relative to control
[3] = system: NCI-H23; assay: Anticancer activity against human NCI-H23 cells assessed cell growth at 10 uM after 48 hrs by sulforhodamine B assay relative to control
[4] = system: SF-268; assay: Anticancer activity against human SF268 cells assessed cell growth at 10 uM after 48 hrs by sulforhodamine B assay relative to control
[5] = system: U-251; assay: Anticancer activity against human U251 cells assessed cell growth at 10 uM after 48 hrs by sulforhodamine B assay relative to control
[6] = system: SK-MEL-5; assay: Anticancer activity against human SK-MEL-5 cells assessed cell growth at 10 uM after 48 hrs by sulforhodamine B assay relative to control
[7] = system: HCT-116; assay: Anticancer activity against human HCT116 cells assessed cell growth at 10 uM after 48 hrs by sulforhodamine B assay relative to control
[8] = system: T47D; assay: Anticancer activity against human T47D cells assessed cell growth at 10 uM after 48 hrs by sulforhodamine B assay relative to control
[9] = system: SNB-75; assay: Anticancer activity against human SNB75 cells assessed cell growth at 10 uM after 48 hrs by sulforhodamine B assay relative to control
[10] = system: NCI-H226; assay: Anticancer activity against human NCI-H226 cells assessed cell growth at 10 uM after 48 hrs by sulforhodamine B assay relative to control
[11] = system: HT-29; assay: Anticancer activity against human HT-29 cells assessed cell growth at 10 uM after 48 hrs by sulforhodamine B assay relative to control
[12] = system: HCT-15; assay: Anticancer activity against human HCT15 cells assessed cell growth at 10 uM after 48 hrs by sulforhodamine B assay relative to control
[13] = system: SW-620; assay: Anticancer activity against human SW620 cells assessed cell growth at 10 uM after 48 hrs by sulforhodamine B assay relative to control
[14] = system: M14; assay: Anticancer activity against human M14 cells assessed cell growth at 10 uM after 48 hrs by sulforhodamine B assay relative to control
[15] = system: UACC-62; assay: Anticancer activity against human UACC62 cells assessed cell growth at 10 uM after 48 hrs by sulforhodamine B assay relative to control
[16] = system: HL-60(TB); assay: Anticancer activity against human HL-60(TB) cells assessed cell growth at 10 uM after 48 hrs by sulforhodamine B assay relative to control
[17] = system: Malme-3M; assay: Anticancer activity against human MALME-3M cells assessed cell growth at 10 uM after 48 hrs by sulforhodamine B assay relative to control
[18] = system: NCI-H522; assay: Anticancer activity against human NCI-H522 cells assessed cell growth at 10 uM after 48 hrs by sulforhodamine B assay relative to control
[19] = system: SN12C; assay: Anticancer activity against human SN12C cells assessed cell growth at 10 uM after 48 hrs by sulforhodamine B assay relative to control
[20] = system: SF-539; assay: Anticancer activity against human SF539 cells assessed cell growth at 10 uM after 48 hrs by sulforhodamine B assay relative to control
[21] = system: MOLT-4; assay: Anticancer activity against human MOLT4 cells assessed cell growth at 10 uM after 48 hrs by sulforhodamine B assay relative to control
[22] = system: NCI/ADR-RES; assay: Anticancer activity against human NCI/ADR-RES cells assessed cell growth at 10 uM after 48 hrs by sulforhodamine B assay relative to control
[23] = system: SK-MEL-2; assay: Anticancer activity against human SK-MEL-2 cells assessed cell growth at 10 uM after 48 hrs by sulforhodamine B assay relative to control
[24] = system: OVCAR-5; assay: Anticancer activity against human OVCAR5 cells assessed cell growth at 10 uM after 48 hrs by sulforhodamine B assay relative to control
[25] = system: COLO 205; assay: Anticancer activity against human COLO205 cells assessed cell growth at 10 uM after 48 hrs by sulforhodamine B assay relative to control
[26] = system: HOP-92; assay: Anticancer activity against human HOP92 cells assessed cell growth at 10 uM after 48 hrs by sulforhodamine B assay relative to control
[27] = system: CCRF-CEM; assay: Anticancer activity against human CCRF-CEM cells assessed cell growth at 10 uM after 48 hrs by sulforhodamine B assay relative to control
[28] = system: KM12; assay: Anticancer activity against human KM12 cells assessed cell growth at 10 uM after 48 hrs by sulforhodamine B assay relative to control
[29] = system: A498; assay: Anticancer activity against human A498 cells assessed cell growth at 10 uM after 48 hrs by sulforhodamine B assay relative to control
[30] = system: ACHN; assay: Anticancer activity against human ACHN cells assessed cell growth at 10 uM after 48 hrs by sulforhodamine B assay relative to control
[31] = system: SK-MEL-28; assay: Anticancer activity against human SK-MEL-28 cells assessed cell growth at 10 uM after 48 hrs by sulforhodamine B assay relative to control
[32] = system: K562; assay: Anticancer activity against human K562 cells assessed cell growth at 10 uM after 48 hrs by sulforhodamine B assay relative to control
[33] = system: OVCAR-3; assay: Anticancer activity against human OVCAR-3 cells assessed cell growth at 10 uM after 48 hrs by sulforhodamine B assay relative to control
[34] = system: MDA-MB-435; assay: Anticancer activity against human MDA-MB-435 cells assessed cell growth at 10 uM after 48 hrs by sulforhodamine B assay relative to control
[35] = system: MDA-MB-231; assay: Anticancer activity against human MDA-MB-231 cells assessed cell growth at 10 uM after 48 hrs by sulforhodamine B assay relative to control
[36] = system: OVCAR-4; assay: Anticancer activity against human OVCAR4 cells assessed cell growth at 10 uM after 48 hrs by sulforhodamine B assay relative to control
[37] = system: DU-145; assay: Anticancer activity against human DU145 cells assessed cell growth at 10 uM after 48 hrs by sulforhodamine B assay relative to control
[38] = system: BT-549; assay: Anticancer activity against human BT549 cells assessed cell growth at 10 uM after 48 hrs by sulforhodamine B assay relative to control
[39] = system: SF-295; assay: Anticancer activity against human SF295 cells assessed cell growth at 10 uM after 48 hrs by sulforhodamine B assay relative to control
[40] = system: UACC-257; assay: Anticancer activity against human UACC257 cells assessed cell growth at 10 uM after 48 hrs by sulforhodamine B assay relative to control
[41] = system: CAKI-1; assay: Anticancer activity against human Caki1 cells assessed cell growth at 10 uM after 48 hrs by sulforhodamine B assay relative to control
[42] = system: SR; assay: Anticancer activity against human SR cells assessed cell growth at 10 uM after 48 hrs by sulforhodamine B assay relative to control
[43] = system: HCC 2998; assay: Anticancer activity against human HCC2998 cells assessed cell growth at 10 uM after 48 hrs by sulforhodamine B assay relative to control

Cn1cc[n+](Cc2ccccc2)c1.F[P-](F)(F)(F)(F)F
Activity [1]: 109.97%
Activity [2]: 131.72%
Activity [3]: 70.66%
Activity [4]: 108.05%
Activity [5]: 101.41%
Activity [6]: 104.4%
Activity [7]: 107.98%
Activity [8]: 90.49%
Activity [9]: 83.18%
Activity [10]: 99.73%
Activity [11]: 96.77%
Activity [12]: 106.14%
Activity [13]: 118.52%
Activity [14]: 114.25%
Activity [15]: 101.92%
Activity [16]: 44.77%
Activity [17]: 118.68%
Activity [18]: 99.72%
Activity [19]: 107.17%
Activity [20]: 106.41%
Activity [21]: 81.59%
Activity [22]: 90.03%
Activity [23]: 108.02%
Activity [24]: 101.34%
Activity [25]: 123.33%
Activity [26]: 109.04%
Activity [27]: 113.04%
Activity [28]: 110.94%
Activity [29]: 112.56%
Activity [30]: 96.35%
Activity [31]: 125.12%
Activity [32]: 70.16%
Activity [33]: 110.15%
Activity [34]: 117.55%
Activity [35]: 113.82%
Activity [36]: 107.15%
Activity [37]: 118.22%
Activity [38]: 112.82%
Activity [39]: 115.95%
Activity [40]: 106.42%
Activity [41]: 83.75%
Activity [42]: 103.39%

CCCCCC[n+]1ccn(C)c1.O=S(=O)([N-]S(=O)(=O)C(F)(F)F)C(F)(F)F
Activity [1]: 95.29%
Activity [2]: 125.38%
Activity [3]: 89.09%
Activity [4]: 109.15%
Activity [5]: 96.82%
Activity [6]: 78.78%
Activity [7]: 80.77%
Activity [9]: 94.84%
Activity [10]: 87.92%
Activity [11]: 88.19%
Activity [12]: 105.5%
Activity [13]: 99.75%
Activity [14]: 100.39%
Activity [15]: 92.58%
Activity [16]: 112.14%
Activity [17]: 102.07%
Activity [18]: 81.74%
Activity [19]: 90.25%
Activity [20]: 75.4%
Activity [21]: 100.94%
Activity [22]: 99.76%
Activity [23]: 102.62%
Activity [24]: 105.87%
Activity [25]: 100.66%
Activity [26]: 114.14%
Activity [27]: 121.99%
Activity [28]: 100.77%
Activity [29]: 84.14%
Activity [30]: 88.98%
Activity [31]: 135.26%
Activity [32]: 101.77%
Activity [33]: 99.74%
Activity [34]: 93.37%
Activity [43]: 90.7%
Activity [35]: 86.26%
Activity [36]: 82.57%
Activity [37]: 117.36%
Activity [38]: 119.52%
Activity [39]: 101.37%
Activity [40]: 87.47%
Activity [41]: 66.14%
Activity [42]: 126.57%

Cn1cc[n+](CCO)c1.O=S(=O)([N-]S(=O)(=O)C(F)(F)F)C(F)(F)F
Activity [1]: 102.56%
Activity [2]: 72.12%
Activity [3]: 93.17%
Activity [4]: 104.78%
Activity [5]: 91.58%
Activity [6]: 100.98%
Activity [7]: 100.02%
Activity [8]: 100.5%
Activity [9]: 79.94%
Activity [10]: 101.7%
Activity [11]: 112.28%
Activity [12]: 90.93%
Activity [13]: 103.41%
Activity [14]: 102.65%
Activity [15]: 100.11%
Activity [16]: 37.14%
Activity [17]: 121.81%
Activity [18]: 90.32%
Activity [19]: 96.7%
Activity [20]: 99.95%
Activity [21]: 49.74%
Activity [22]: 92.39%
Activity [23]: 97.37%
Activity [25]: 132.21%
Activity [26]: 74.53%
Activity [27]: 72.37%
Activity [28]: 107.33%
Activity [29]: 79.55%
Activity [30]: 97.02%
Activity [31]: 125.37%
Activity [32]: 80.37%
Activity [33]: 120.42%
Activity [34]: 116.12%
Activity [43]: 94.14%
Activity [35]: 104.59%
Activity [36]: 100.13%
Activity [37]: 114.39%
Activity [38]: 114.11%
Activity [39]: 128.56%
Activity [40]: 93.35%
Activity [41]: 90.82%
Activity [42]: 119.61%

CCCCCCCCCCCC[n+]1ccn(C)c1.[Cl-]
Activity [1]: 44.54%
Activity [2]: 116.34%
Activity [3]: 28.79%
Activity [4]: 58.74%
Activity [5]: 21.74%
Activity [6]: -33.13%
Activity [7]: 17.62%
Activity [8]: 24.65%
Activity [9]: -10.6%
Activity [10]: 30.42%
Activity [11]: 12.35%
Activity [12]: 82.04%
Activity [13]: 44.11%
Activity [14]: 8.94%
Activity [15]: 31.07%
Activity [16]: 51.9%
Activity [17]: 24.55%
Activity [18]: -19.92%
Activity [19]: 19.36%
Activity [20]: 30.45%
Activity [21]: 78.62%
Activity [22]: 82.17%
Activity [23]: 13.06%
Activity [24]: 45.62%
Activity [25]: 8.8%
Activity [26]: 51.88%
Activity [27]: 110.51%
Activity [28]: 14.03%
Activity [29]: 12.45%
Activity [30]: 45.02%
Activity [31]: 34.86%
Activity [32]: 64.21%
Activity [33]: 45.92%
Activity [34]: 7.98%
Activity [43]: 31.07%
Activity [35]: 41.54%
Activity [36]: 22.69%
Activity [37]: 6.6%
Activity [39]: 9.99%
Activity [40]: -12.38%
Activity [41]: 28.77%
Activity [42]: 103.6%
